The record followed here is article PMC6611794, “Development of a high-throughput strategy for discovery of potent analogues of antibiotic lysocin E” (Nature Communications, 2019).

In brackets after ≈: the same amount, converted by molar mass. Like-named read-outs stand apart in the source and are kept apart here. Where a SMILES comes first, the peptide text is derived from it. Bridges are numbered along the chain shown (N, C = ends). [ ]: non-standard residue; d: D form. The star is where a group is joined. Hexanoyl(3R-OH,5-Me) = CC(C)C[C@@H](O)CC(=O)*; dNMeF = CN[C@H](Cc1ccccc1)C(=O)O; dOrn = NCCC[C@@H](N)C(=O)O

The procedure of assay [1]: Preparation of LUVs consisting of PC/PG/MK-4 or PC/PG/UQ-10. To a solution of egg yolk phosphatidylcholine (9.48 mg, 12.4 µmol) and egg yolk phosphatidylglycerol (9.66 mg, 12.4 µmol) in CHCl3 (0.208 mL) was added a solution of MK-4 (2) or UQ-10 (3) (0.313 µmol) in CHCl3 (21.8 µL). The solution was concentrated, and dried under vacuum to for m a lipid thin film. The thin film was hydrated and suspended in carboxyfluorescein-containing buffer solution (0.500 mL, 5 mM HEPES, 20 mM carboxyfluorescein , pH 7.5) by vortexing and sonication. After five-times freeze-thaw cycles, the lipid suspension was extruded 19 times through a polycarbonate filter with 0.40 µm of pore siz e in the diameter.
The external carboxyfluorescein -containing buffer was replaced with a carboxyfluorescein -free buffer solution (20 mM HEPES, 1 mM EDTA, pH 7.5) through size exclusion chromatography using disposable PD -10 column. Concentration of egg yolk phosphatidylcholine was determined by using Phospholipid C -Test Wako.
The final concentration of egg yolk phosphatidylcholine was adjusted to 4.0 µM with the carboxyfluorescein -free buffer solution, and the solution was used for membrane disruption ass ay.
Membrane disruption assay. […]
to various concentrations as 5-fold serial dilutions. The solution of peptides (2 µL/well) and the carboxyfluorescein-encapsulated LUV suspension (200 µL/well) were mixed in black polystyrene flat-bottom 96-well plates. The final concentration of peptides ranged from 2970 nM to 0.950 nM. The plates were vortexed at room temperature for 30 min, and then fluorescence of carboxyfluorescein (Ex. 490 nm/Em. 517 nm) of each well was measured at room temperature on Gemini EM microplate reader. Trion X-100/H2O (5/95, 2 µL), MeOH/H2O (4/6, 2 µL), and the LUV suspension were mixed in each plate to determine 100% lysis. MeOH/H2O (4/6, 2 µL) and the LUV suspension were mixed in each plate to determine 0% lysis.
The membrane disruption activities of tested peptides (I) were normalized against 100% lysis by Triton X -100 […]
(Imax) and 0% lysis by MeOH/H2O (4/6) (I0) as following, where Ix is the fluorescence intensity (Supplementary Equation 2).
I = 100 × (Ix – I0) / (Imax – I0) (2)
The membrane-disrupting activities were evaluated as half-maximal response (EC50, nM) values by means of three replicates. Sigmoidal curve fittings were performed on R2 with drc package (Supplementary Figs S7–S9).3 Two-parameter logistic model was applied for the fitting.

Assay [2] deals with Listeria monocytogenes 10403S. In kind it is cell-based. The conditions noted are these: 18 h. As to the method: (§1) Antimicrobial activity assay of bead-derived peptides. […]
(§2) plate was added DMSO (1 µL/well). […]
(§3) precipitation of the grown cells was examined.
(§4) Evaluation of antimicrobial spectra of peptides. The MIC assay was performed according to the Clinical and Laboratory Standards Institute protocols. The antimicrobial activities of the peptides were measured […]
(§5) Soy Broth or Müller Hinton Broth agar plates. Bacterial inoculum was prepared by direct suspension of the […]
(§6) and incubated at 37 °C for 18 h. […]
(§7) inhibited growth of bacteria.

Assay [3] concerns Bacillus subtilis JCM2499. In kind it is cell-based. The conditions noted are these: JCM2499, 18 h. How it is done:
as §1, §2, §3, §4, §5, §6, §7

The test system of assay [4] is Bacillus cereus JCM20037. In kind it is cell-based. The settings on record: JCM20037, 18 h. As to the method: as §1, §2, §3, §4, §5, §6, §7
Assay [5] has as its system Staphylococcus aureus MSSA1. The conditions noted are these: 10% BCS. How it is done: Evaluation of antimicrobial spectra of peptides. The MIC assay was performed according to the Clinical and Laboratory Standards Institute protocols. The antimicrobial activities of the peptides were measured using the broth microdilution method.1 Serial dilutions of peptides were prepared in cation adjusted Müller Hinton Broth. Each dilution (100 µL) was dispensed to each well of the round-bottom plate to obtain final concentrations ranging from 64 µg/m L to 0.0075 µg/m L. Bacteria were grown at 37 °C overnight on Tryptic Soy Broth or Müller Hinton Broth agar plates. Bacterial inoculum was prepared by direct suspension of the colonies in 0.9% saline, and adjusted to obtain OD 625 0.08–0.13 using a spectrophotometer UV -1280 (Shimadzu). The resultant suspension was diluted with cation adjusted Müller Hinton Broth (1/20). The resultant mixture (10 µL) was inoculated to each well of the plates (approximately 5 ×10^4 CFU/well ), mixed, and incubated at 37 °C for 18 h. The MIC value was determined as the minimum concentration that inhibited growth of bacteria. To evaluate the antimicrobial activities of peptides in the presence of serum, 10% bovine calf serum in cation adjusted Müller Hinton Broth was used.

The test system of assay [6] is MRSA4. Type of assay: cell-based, Staphylococcus aureus. The settings on record: 18 h. As to the method:
as §1, §2, §3, §4, §5, §6, §7

Where [7] appears, read: read-out: EC50 PC/PG/2 1st, PC/PG/2 LUVs, 1st experiment.
Setting [8] is: read-out: EC50 PC/PG/2 2nd, PC/PG/2 LUVs, 2nd experiment.
The mark [9] stands for this setting: read-out: EC50 PC/PG/2 3rd, PC/PG/2 LUVs, 3rd experiment.
Setting [10] is: read-out: EC50 PC/PG/2, 30 min, room temperature, mean ± SD of three independent experiments.

As to `CC(C)C[C@@H](O)CC(=O)N[C@@H]1C(=O)N[C@H](CCCNC(=N)N)C(=O)N[C@@H](C)C(=O)NCC(=O)N(C)[C@H](Cc2ccccc2)C(=O)N[C@@H](CC(C)C)C(=O)N[C@H](CCCNC(=N)N)C(=O)N[C@@H](CCC(=O)O)C(=O)N[C@H](Cc2ccc(O)cc2)C(=O)N[C@H](Cc2c[nH]c3ccccc23)C(=O)N[C@@H](Cc2ccc(O)cc2)C(=O)N[C@@H]([C@@H](C)O)C(=O)O[C@@H]1C` [Peptide A15] ({Hexanoyl(3R-OH,5-Me)}-T[dR]AG[dNMeF]L[dR]E[dY][dW]YT; ester 1-C), the EC50 in assay [1] (setting [7]) was 0.0576 µM; in assay [1] (setting [8]) it was 0.0396 µM; in assay [1] (setting [9]), 0.009 µM; in assay [1] (setting [10]), 0.0354 ± 0.0246 µM. Moreover, the MIC – broadly, the least concentration at which growth counts as inhibited – in assay [2] worked out at 64 mg/L (≈ 37.9 µM).

Consider `CC[C@H](C)[C@@H]1NC(=O)[C@@H](Cc2c[nH]c3ccccc23)NC(=O)[C@@H](Cc2ccc(O)cc2)NC(=O)[C@H](CCC(=O)O)NC(=O)[C@@H](CCCNC(=N)N)NC(=O)[C@H](CC(C)C)NC(=O)[C@@H](Cc2ccccc2)N(C)C(=O)CNC(=O)[C@H](CC(=O)O)NC(=O)[C@@H](CCCNC(=N)N)NC(=O)[C@@H](NC(=O)C[C@H](O)CC(C)C)[C@@H](C)OC(=O)[C@H]([C@@H](C)O)NC1=O` [Peptide A17] ({Hexanoyl(3R-OH,5-Me)}-T[dR]DG[dNMeF]L[dR]E[dY][dW]IT; ester 1-C), for which the EC50 in assay [1] (setting [7]) is 0.437 µM; in assay [1] (setting [8]), 0.178 µM; in assay [1] (setting [9]), 0.144 µM; in assay [1] (setting [10]), 0.253 ± 0.16 µM. The MIC in assay [3] and in assay [4] was 16 mg/L (≈ 9.52 µM) in each case.

As for `CC[C@H](C)[C@@H]1NC(=O)[C@@H](Cc2c[nH]c3ccccc23)NC(=O)[C@@H](C(C)C)NC(=O)[C@H](CCC(=O)O)NC(=O)[C@@H](CCCNC(=N)N)NC(=O)[C@H](CC(C)C)NC(=O)[C@@H](Cc2ccccc2)N(C)C(=O)CNC(=O)[C@H](CCCCN)NC(=O)[C@@H](CCCNC(=N)N)NC(=O)[C@@H](NC(=O)C[C@H](O)CC(C)C)[C@@H](C)OC(=O)[C@H]([C@@H](C)O)NC1=O` [Peptide A3] ({Hexanoyl(3R-OH,5-Me)}-T[dR]KG[dNMeF]L[dR]E[dV][dW]IT; ester 1-C), in assay [5], the “antimicrobial activity relative to parent 1” value is on record as 4 fold. In assay [6], this compound yielded an MIC of 0.125 mg/L (≈ 0.0767 µM). The EC50 came out at 0.00768 µM in assay [1] (setting [7]), 0.0146 µM in assay [1] (setting [8]), 0.0098 µM in assay [1] (setting [9]) and 0.0107 ± 0.0035 µM in assay [1] (setting [10]).

`CC[C@H](C)[C@@H]1NC(=O)[C@@H](Cc2c[nH]c3ccccc23)NC(=O)[C@@H](CCC(N)=O)NC(=O)[C@H](CCC(=O)O)NC(=O)[C@@H](CCCNC(=N)N)NC(=O)[C@H](CC(C)C)NC(=O)[C@@H](Cc2ccccc2)N(C)C(=O)CNC(=O)[C@H](C)NC(=O)[C@@H](CCCNC(=N)N)NC(=O)[C@@H](NC(=O)C[C@H](O)CC(C)C)[C@@H](C)OC(=O)[C@H]([C@@H](C)O)NC1=O` [Peptide A1] ({Hexanoyl(3R-OH,5-Me)}-T[dR]AG[dNMeF]L[dR]E[dQ][dW]IT; ester 1-C): in assay [5], the “antimicrobial activity relative to parent 1” value is on record as 4 fold. For the same compound, in assay [6], the MIC is 0.25 mg/L (≈ 0.156 µM). The EC50 in assay [1] (setting [7]) was found to be 0.0259 µM; in assay [1] (setting [8]), 0.00468 µM; in assay [1] (setting [9]), 0.0061 µM; in assay [1] (setting [10]), 0.0122 ± 0.0119 µM.

In the case of `CC[C@H](C)[C@@H]1NC(=O)[C@@H](Cc2c[nH]c3ccccc23)NC(=O)[C@@H](CCCN)NC(=O)[C@H](CCC(=O)O)NC(=O)[C@@H](CCCNC(=N)N)NC(=O)[C@H](CC(C)C)NC(=O)[C@@H](Cc2ccccc2)N(C)C(=O)CNC(=O)[C@H](Cc2ccc(O)cc2)NC(=O)[C@@H](CCCNC(=N)N)NC(=O)[C@@H](NC(=O)C[C@H](O)CC(C)C)[C@@H](C)OC(=O)[C@H]([C@@H](C)O)NC1=O` [Peptide A7] ({Hexanoyl(3R-OH,5-Me)}-T[dR]YG[dNMeF]L[dR]E[dOrn][dW]IT; ester 1-C), in assay [1], the “selectivity index (EC50 against PC/PG/3 divided by EC50 against PC/PG/2)” value is reported as 19.7. The EC50 in assay [1] (setting [7]) was 0.0246 µM; in assay [1] (setting [8]), 0.0278 µM; in assay [1] (setting [9]) it was 0.0149 µM; in assay [1] (setting [10]) it was 0.0224 ± 0.0067 µM.

As to `CC[C@H](C)[C@@H]1NC(=O)[C@@H](Cc2c[nH]c3ccccc23)NC(=O)[C@@H](CCCN)NC(=O)[C@H](CCC(=O)O)NC(=O)[C@@H](CCCNC(=N)N)NC(=O)[C@H](CC(C)C)NC(=O)[C@@H](Cc2ccccc2)N(C)C(=O)CNC(=O)[C@H](CC(=O)O)NC(=O)[C@@H](CCCNC(=N)N)NC(=O)[C@@H](NC(=O)C[C@H](O)CC(C)C)[C@@H](C)OC(=O)[C@H]([C@@H](C)O)NC1=O` [Peptide A16] ({Hexanoyl(3R-OH,5-Me)}-T[dR]DG[dNMeF]L[dR]E[dOrn][dW]IT; ester 1-C), in assay [1], the “selectivity index (EC50 against PC/PG/3 divided by EC50 against PC/PG/2)” value is 20.6. The EC50 in assay [1] (setting [7]) was found to be 0.0701 µM; in assay [1] (setting [8]) it was 0.0335 µM; in assay [1] (setting [9]), 0.0171 µM; in assay [1] (setting [10]), 0.0403 ± 0.0271 µM.

`CC[C@H](C)[C@@H]1NC(=O)[C@@H](Cc2c[nH]c3ccccc23)NC(=O)[C@@H](CCCN)NC(=O)[C@H](CCC(=O)O)NC(=O)[C@@H](CCCNC(=N)N)NC(=O)[C@H](CC(C)C)NC(=O)[C@@H](Cc2ccccc2)N(C)C(=O)CNC(=O)[C@H](CC(N)=O)NC(=O)[C@@H](CCCNC(=N)N)NC(=O)[C@@H](NC(=O)C[C@H](O)CC(C)C)[C@@H](C)OC(=O)[C@H]([C@@H](C)O)NC1=O` [Peptide A14] ({Hexanoyl(3R-OH,5-Me)}-T[dR]NG[dNMeF]L[dR]E[dOrn][dW]IT; ester 1-C): the “selectivity index (EC50 against PC/PG/3 divided by EC50 against PC/PG/2)” value in assay [1] is recorded as more than 19.7. Moreover, the EC50 amounted to 0.118 µM in assay [1] (setting [7]), 0.0791 µM in assay [1] (setting [8]), 0.0319 µM in assay [1] (setting [9]) and 0.0763 ± 0.0431 µM in assay [1] (setting [10]).

`CC[C@H](C)[C@@H]1NC(=O)[C@@H](Cc2c[nH]c3ccccc23)NC(=O)[C@@H](C(C)C)NC(=O)[C@H](CCC(=O)O)NC(=O)[C@@H](CCCNC(=N)N)NC(=O)[C@H](CC(C)C)NC(=O)[C@@H](Cc2ccccc2)N(C)C(=O)CNC(=O)[C@H](C)NC(=O)[C@@H](CCCNC(=N)N)NC(=O)[C@@H](NC(=O)C[C@H](O)CC(C)C)[C@@H](C)OC(=O)[C@H]([C@@H](C)O)NC1=O` [Peptide A2] ({Hexanoyl(3R-OH,5-Me)}-T[dR]AG[dNMeF]L[dR]E[dV][dW]IT; ester 1-C): the “antimicrobial activity relative to parent 1” value in assay [5] is reported as 4 fold. In assay [6], this compound yielded a minimum inhibitory concentration (MIC) of 0.25 mg/L (≈ 0.159 µM). Moreover, the EC50 in assay [1] (setting [7]) is 0.0311 µM; in assay [1] (setting [8]), 0.0183 µM; in assay [1] (setting [9]), 0.0046 µM; in assay [1] (setting [10]), 0.018 ± 0.0133 µM.
